B1: OVA: recombinant full-length OVA protein purchased from Sigma, control protein (protein, UniProt P01012 1-386, looked up)
chain: MGSIGAASMEFCFDVFKELKVHHANENIFYCPIAIMSALAMVYLGAKDSTRTQINKVVRFDKLPGFGDSIEAQCGTSVNVHSSLRDILNQITKPNDVYSFSLASRLYAEERYPILPEYLQCVKELYRGGLEPINFQTAADQARELINSWVESQTNGIIRNVLQPSSVDSQTAMVLVNAIVFKGLWEKAFKDEDTQAMPFRVTEQESKPVQMMYQIGLFRVASMASEKMKILELPFASGTMSMLVLLPDEVSGLEQLESIINFEKLTEWTSSNVMEERKIKVYLPRMKMEEKYNLTSVLMAMGITDVFSSSANLSGISSAESLKISQAVHAAHAEINEAGREVVGSAEAGVDAASVSEEFRADHPFLFCIKHIATNAVLFFGRCVSP
modifications: full-length

Legend:
[1] = test system: LN cells of TRP1-/-//DR4+ (KO) and TRP1+/-//DR4+ (WT) mice, antigen pulsed onto DR4+ 1088 EBV-B; assay: Ex vivo IFN-γ ELISPOT of LN cells from hTRP-1-immunized KO and WT mice; assay type: cell-based, mouse; settings: for ex vivo ELISPOT reactivity, KO-derived compared with WT-derived CD4+ T cells: peptide 100 μM or protein 50 μg/ml pulsed onto 1088 EBV-B, 24 hours; for T cell frequency by ex vivo IFN-γ ELISPOT titration (mean): peptide 100 μM, Fig. 2D
[2] = test system: LN cells of DR4 Tg mice, antigen pulsed onto DR4+ 1088 EBV-B; assay: IFN-γ ELISA of expanded LN T cells from mTRP-1-immunized DR4 Tg mice; assay type: cell-based, mouse; settings: protein pulsed onto DR4+ 1088 EBV-B at 25 μg/ml; compared with mTRP-1 protein
HLA-DR4 (HLA-DRB1*0401) = HLA-DR4 (HLA-DRB1*0401) (Homo sapiens, UniProt P01903+P01911, A100K/A169T/F76Y/I96L/K127E/L162R/M171V/N62H/P40V/Q125Y/R42H/S133A/S149N/S66Y/V115G/V209L/W38E); settings: competitive binding assay, purified class II, 48h in PBS with NP40; Fig. 1B

Row | Molecule | ex vivo ELISPOT reactivity, KO-derived compared with WT-derived CD4+ T cells [1] | specific IFN-γ secretion by ELISA, protein [2] | relative affinity (IC50), human variant compared with murine counterpart (HLA-DR4 (HLA-DRB1*0401)) | T cell frequency by ex vivo IFN-γ ELISPOT titration (mean) ([1]; TRP1+/-//DR4+ (WT) LN cells) | T cell frequency by ex vivo IFN-γ ELISPOT titration (mean) ([1]; TRP1-/-//DR4+ (KO) LN cells)
1 | hTRP-1 protein: recombinant human TRP-1 protein | significantly greater | superior | – | – | –
2 | hTRP-1_277-297: HLA-DRB1*0401-restricted epitope from human TRP-1, positions 277-297 (ISPNSVFSQWRVVCDSLEDYD; UniProt P17643 277-297, looked up, fragment) | – | – | nearly three times less | 158 | 163
3 | mTRP-1 protein: recombinant murine TRP-1 protein | significantly greater | – | – | – | –
4 | B1 | – | No significant immune response | – | – | –
